In patent US6730697B2, “Dihydrothiaphenanthrenecarbonylguanidines: composition, process of making, and use as medicament or diagnostic aid” (Aventis Pharma Deutschland GmbH, priority 2002, dated 2004):
Structures can show the parent of a compound that is named as a salt.

Target: T1, human NHE-1 (Homo sapiens, UniProt P19634)
T1 construct: expressed in transfected cells; host or cells: LAP-1 cells (parental line without endogenous NHE activity, from Prof. Pouysségur, Nice), G418-selected transfectants
Assay: FLIPR assay for NHE-1 inhibition by recovery of pHi in transfected cell lines
Type: cell-based
Settings: transfected LAP-1 cell line expressing human NHE-1, BCECF fluorescence
Description: The NHE-1 inhibition IC50 [nM] was determined as follows: FLIPR Assay for Determining NHE-1 Inhibitors by Measurement of the Recovery in pHi in Transfected Cell Lines Which Express Human NHE-1 The assay is carried out in an FLIPR (fluorometric imaging plate reader) with black-walled 96-well microtiter plates with clear bases. […] [The growth medium for the transfected cells (Iscove +10% fetal calf serum) additionally contains G418 as selection antibiotic in order to ensure the presence of the transfected sequences.] The actual assay starts with the removal of the growth medium and addition of 100 μl of loading buffer per well (5 μM BCECF-AM [2′, 7′-bis(carboxyethyl)-5-(and-6)-carboxyfluorescein, acetoxymethyl ester] in 20 mM NH4Cl, 115 mM choline chloride, 1 mM MgCl2, 1 mM CaCl2, 5 mM KCl, 20 mM HEPES, 5 mM glucose; pH 7.4 [adjusted with KOH]). The cells are then incubated at 37° C. for 20 minutes. This incubation leads to loading of the cells with the fluorescent dye whose fluorescence intensity depends on pHi, and with NH4Cl which makes the cells slightly alkaline. [The nonfluorescent dye precursor BCECF-AM is, as ester, membrane-permeable. The actual dye BCECF is not membrane-permeable but is liberated inside cells by esterases.] After this incubation for 20 minutes, the loading buffer which contains NH4Cl and free BCECF-AM is removed by washing three times in a cell washer (Tecan Columbus) with in each case 400 μl of washing buffer (133.8 mM choline chloride, 4.7 mM KCl, 1.25 mM MgCl2, 1.25 mM CaCl2, 0.97 mM K2HPO4, 0.23 mM KH2PO4, 5 mM HEPES, 5 mM glucose; pH 7.4 [adjusted with KOH]). The residual volume remaining in the wells is 90 μl (50-125 μl possible). This washing step removes the free BCECF-AM and results, as a consequence of the removal of the external NH4^+ ions, in intracellular acidification (˜pHi 6.3-6.4). Since the equilibrium of intracellular NH4^+ with NH3 and H^+ is disturbed by the removal of the extracellular NH4^+ and by the subsequent instantaneous passage of the NH3 through the cell membrane, the washing process results in H^+ remaining inside the cells, which is the cause of the intracellular acidification. This may eventually lead to cell death if it persists long enough. It is important at this point that the washing buffer is sodium-free (<1 mM) because extracellular sodium ions would lead to an instantaneous recovery of the pHi through the activity of the cloned NHE isoforms. It is likewise important for all the buffers used (loading buffer, washing buffer, recovery buffer) not to contain any HCO3^− ions, because the presence of bicarbonate would lead to activation of interfering bicarbonate-dependent pHi regulatory systems present in the parental LAP-1 cell line. The microtiter plates with the acidified cells are then (up to 20 minutes after the acidification) transferred to the FLIPR. In the FLIPR, the intracellular fluorescent dye is excited by light with a wavelength of 488 nm generated by an argon laser, and the measured parameters (laser power, illumination time and aperture of the CCD camera incorporated in the FLIPR) are chosen so that the average fluorescence signal per well is between 30 000 and 35 000 relative fluorescence units. The actual measurement in the FLIPR starts with a photograph being taken by the CCD camera every two seconds under software control. After ten seconds, the recovery of the intracellular pH is initiated by adding 90 μl of recovery buffer (133.8 mM NaCl, 4.7 mM KCl, 1.25 mM MgCl2, 1.25 mM CaCl2, 0.97 mM K2HPO4, 0.23 mM KH2PO4, 10 mM HEPES, 5 mM glucose; pH 7.4 [adjusted with NaOH]) by means of the 96-well pipettor incorporated in the FLIPR. Positive control wells (100% NHE activity) are those to which pure recovery buffer is added, while negative controls (0% NHE activity) receive washing buffer. Recovery buffer with twice the concentration of test substance is added to all the other wells. Measurement in the FLIPR terminates after 60 measurements (two minutes). […]

T1 sequence (P19634 whole entry): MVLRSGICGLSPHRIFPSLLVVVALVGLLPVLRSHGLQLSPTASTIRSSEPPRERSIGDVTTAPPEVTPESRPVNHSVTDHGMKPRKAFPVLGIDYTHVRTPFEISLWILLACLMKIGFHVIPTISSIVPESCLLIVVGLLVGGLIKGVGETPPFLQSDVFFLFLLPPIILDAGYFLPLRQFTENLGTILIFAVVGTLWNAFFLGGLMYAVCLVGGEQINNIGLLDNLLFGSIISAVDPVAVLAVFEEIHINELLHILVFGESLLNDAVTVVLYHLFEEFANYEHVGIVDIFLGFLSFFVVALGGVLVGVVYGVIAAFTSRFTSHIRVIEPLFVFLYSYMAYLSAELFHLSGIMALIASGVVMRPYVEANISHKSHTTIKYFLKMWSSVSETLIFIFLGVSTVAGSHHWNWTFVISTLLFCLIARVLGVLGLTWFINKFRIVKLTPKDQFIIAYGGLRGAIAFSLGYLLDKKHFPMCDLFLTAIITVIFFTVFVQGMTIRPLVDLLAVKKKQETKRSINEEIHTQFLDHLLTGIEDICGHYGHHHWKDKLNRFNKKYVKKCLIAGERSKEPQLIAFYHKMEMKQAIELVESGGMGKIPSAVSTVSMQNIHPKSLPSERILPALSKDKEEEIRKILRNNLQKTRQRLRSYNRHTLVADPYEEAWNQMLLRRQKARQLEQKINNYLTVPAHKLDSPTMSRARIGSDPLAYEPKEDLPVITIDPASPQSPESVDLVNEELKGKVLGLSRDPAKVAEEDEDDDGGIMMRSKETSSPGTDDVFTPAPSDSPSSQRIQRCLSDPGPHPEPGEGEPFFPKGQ

| IC50 [nM] | SMILES |
| --- | --- |
| 10.2 | COc1ccc2c(c1)CS(=O)(=O)c1cc(C(=O)NC(=N)N)c(C)cc1-2 [Example 8, N-(2-Methoxy-6-methyl-9,9-dioxo-9,10-dihydro-9-thiaphenanthrene-7-carbonyl)guanidinium Formate] |
| 67.7 | Cc1cc2c(cc1C(=O)NC(=N)N)S(=O)(=O)Cc1cccc(C)c1-2 [Example 10, N-(4,6-Dimethyl-9,9-dioxo-9,10-dihydro-9-thiaphenanthrene-7-carbonyl)-guanidinium Formate] |
| 13.9 | Cc1cc2c(cc1C(=O)NC(=N)N)S(=O)(=O)Cc1c(Cl)cccc1-2 [Example 9, N-(1-Chloro-6-methyl-9,9-dioxo-9,10-dihydro-9-thiaphenanthrene-7-carbonyl)guanidinium Formate] |
| 19.5 | Cc1ccc2c(c1)CS(=O)(=O)c1cc(C(=O)NC(=N)N)c(C)cc1-2 [Example 11, N-(2,6-Dimethyl-9,9-dioxo-9,10-dihydro-9-thiaphenanthrene-7-carbonyl)-guanidinium Formate] |

The remaining lines, values behind:

| SMILES | IC50 [nM] |
| --- | --- |
| Cc1cc2c(cc1C(=O)NC(=N)N)S(=O)(=O)Cc1ccccc1-2 [Example 1, N-(6-Methyl-9,9-dioxo-9,10-dihydro-9-thiaphenanthrene-7-carbonyl)guanidinium Formate] | 15.6 |
| Cc1cc2c(cc1C(=O)NC(=N)N)S(=O)(=O)Cc1ccc3ccccc3c1-2 [Example 2, N-(2-Methyl-5,5-dioxo-5,6-dihydro-5-thiabenzo[c]phenanthrene-3-carbonyl)guanidinium Formate] | 24.2 |
| Cc1ccc2c(c1)-c1cc(C)c(C(=O)NC(=N)N)cc1S(=O)(=O)C2 [Example 3, N-(3,6-Dimethyl-9,9-dioxo-9,10-dihydro-9-thiaphenanthrene-7-carbonyl)-guanidinium Formate] | 8.6 |
| Cc1cc2c(cc1C(=O)NC(=N)N)S(=O)(=O)Cc1ccc(Cl)cc1-2 [Example 7, N-(3-Chloro-6-methyl-9,9-dioxo-9,10-dihydro-9-thiaphenanthrene-7-carbonyl)guanidinium Formate] | 11.7 |
| Cc1cc2c(cc1C(=O)NC(=N)N)S(=O)(=O)Cc1cc(Cl)ccc1-2 [Example 4, N-(2-Chloro-6-methyl-9,9-dioxo-9,10-dihydro-9-thiaphenanthrene-7-carbonyl)guanidinium Formate] | 10.8 |
| Cc1cc2c(cc1C(=O)NC(=N)N)S(=O)(=O)Cc1c(F)cccc1-2 [Example 6, N-(1-Fluoro-6-methyl-9,9-dioxo-9,10-dihydro-9-thiaphenanthrene-7-carbonyl)guanidinium Formate] | 16.5 |
| Cc1cc2c(cc1C(=O)NC(=N)N)S(=O)(=O)Cc1ccc(F)cc1-2 [Example 5, N-(3-Fluoro-6-methyl-9,9-dioxo-9,10-dihydro-9-thiaphenanthrene-7-carbonyl)guanidinium Formate] | 15.6 |
